These results are taken from US20080194636A1, “Enzyme Inhibitors and Uses Thereof” (Howard Florey Institute Of Experimental Physiology And …, priority 2004, published 2008).

For assay [1], the target named is T1, insulin-regulated aminopeptidase (IRAP) (Homo sapiens, UniProt Q9UIQ6).
T1 construct: containing the cDNA encoding the full length human RAP were utilised; made in house; host or cells: HEK293 cells transfected with pcDNA-3
Nature of the assay: In vitro enzymatic assay for inhibitors of IRAP (hydrolysis of Leu-MCA, fluorescence). Type of assay: biochemical. The conditions noted are these: recombinant full length human IRAP from transfected HEK293 cells; substrate Leu-MCA. As to the method:
An in vitro enzymatic assay was used for screening for compounds which inhibit IRAP activity. The assay used an aminopeptidase substrate (leucine 4-methylcoumaryl-7-amide), a source of IRAP-containing material, and a candidate inhibitor.
IRAP-containing material was incubated with a synthetic aminopeptidase substrate, such as Leu-MCA (leucine 4-methylcoumaryl-7-amide), and a test substance. Inhibition of the rate of degradation of the synthetic substrate was taken as a measure of the inhibitory effect of the test substance.
As a source of recombinant IRAP, HEK293 cells transfected with a eukaryotic expression vector pcDNA-3 containing the cDNA encoding the full length human RAP were utilised. The assay system involved the measurement of the rate of hydrolysis of Leu-MCA by RAP. […] Candidate test compounds were added to the assay system, and their effects on the hydrolysis of Leu-MCA were taken to be direct indicators of their ability to inhibit IRAP activity.

Assay [2] has as its system scopolamine-induced memory deficit. Nature of the assay: Scopolamine-induced memory deficit model, inhibitory avoidance paradigm. The format is in vivo, rat. The following applies: rats, following scopolamine, retrieval trial 24 h later, vs scopolamine followed by vehicle. As to the method: The effect of IRAP inhibitor Compound 1 on scopolamine-induced amnesia was tested in the inhibitory avoidance paradigm.
The inhibitory avoidance box is made up of two chambers, a smaller light compartment and a larger darken compartment and the test comprises of two trials. The first training trial involves placing the rat in the light compartment facing the wall and as soon as it runs to the end of the dark compartment and turns around, an electric shock of 0.6 mA is administered for 2 s and the animal is left in the dark compartment for a total of 15 s before being returned to its home cage. After a 24 h interval, the animal is then tested again and the latency in entering the dark chamber is a measure of the ability of the animal to remember the aversive stimulus. To test for the effect of the IRAP inhibitors, the rats were implanted with a chronic indwelling cannula into the lateral ventricles 1 week before the behavioural experiments. On the day of the testing, 15 min before the training trial, the rats were injected with either […] scopolamine hydrobromide dissolved in 2 ul of 0.9% saline or 0.9% saline before being placed in the inhibitory avoidance box for the training trial. Immediately after the training trial, the rats were injected with either 0.2 or 2 nmol of compound 1 (from Example 1) dissolved in 2 ul of 10% DMSO or vehicle control. […]

The test system of the next assay is 3T3-L1 cells. The conditions noted are these: 0.1 and 1 uM; basal and insulin (0.7 nM) stimulated; cited from earlier work.

T1 sequence (Q9UIQ6 whole entry): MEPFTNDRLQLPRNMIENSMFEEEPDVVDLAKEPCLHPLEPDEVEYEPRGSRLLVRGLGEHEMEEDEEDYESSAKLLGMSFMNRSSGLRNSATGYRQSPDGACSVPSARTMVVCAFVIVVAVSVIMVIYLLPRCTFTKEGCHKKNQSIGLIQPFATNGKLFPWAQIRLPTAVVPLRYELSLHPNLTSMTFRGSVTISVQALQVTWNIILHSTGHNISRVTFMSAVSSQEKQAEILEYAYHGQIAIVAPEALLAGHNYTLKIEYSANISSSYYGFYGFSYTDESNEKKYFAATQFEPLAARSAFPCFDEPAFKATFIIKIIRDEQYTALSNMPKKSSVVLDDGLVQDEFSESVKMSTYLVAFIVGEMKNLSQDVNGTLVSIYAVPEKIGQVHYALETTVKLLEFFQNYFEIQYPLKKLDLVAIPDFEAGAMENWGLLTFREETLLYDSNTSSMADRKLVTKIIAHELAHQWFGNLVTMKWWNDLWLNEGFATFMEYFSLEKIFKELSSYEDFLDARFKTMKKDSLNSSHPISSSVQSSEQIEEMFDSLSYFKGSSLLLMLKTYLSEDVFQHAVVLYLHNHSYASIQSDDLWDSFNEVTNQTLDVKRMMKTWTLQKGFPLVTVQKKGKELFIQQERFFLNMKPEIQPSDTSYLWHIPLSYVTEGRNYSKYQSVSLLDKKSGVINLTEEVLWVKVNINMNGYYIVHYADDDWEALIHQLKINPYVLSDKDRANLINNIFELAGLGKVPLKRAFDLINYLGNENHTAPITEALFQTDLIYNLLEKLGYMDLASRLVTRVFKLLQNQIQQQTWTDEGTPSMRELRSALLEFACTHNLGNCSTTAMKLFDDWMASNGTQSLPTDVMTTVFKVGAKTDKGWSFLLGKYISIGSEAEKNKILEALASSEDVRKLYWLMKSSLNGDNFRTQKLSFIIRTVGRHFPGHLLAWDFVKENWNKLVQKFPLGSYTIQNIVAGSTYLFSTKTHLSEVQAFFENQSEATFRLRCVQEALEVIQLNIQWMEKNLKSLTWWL

In general, IC50 refers to the point on the concentration scale where inhibition reaches its midpoint. Turning to `CCOC(=O)C1=C(N)Oc2cc(O)ccc2C1c1cccc(Cl)c1` (stereo not shown) [Compound 2], the IC50 in assay [1] stood at 42 µM.
As for `CCOC(=O)C1=C(N)Oc2cc(O)ccc2C1c1cccnc1` (stereo not shown) [Compound 1], the “latency in entering the dark chamber” value in assay [2] (0.2 nmol icv immediately after training trial) and in assay [2] (2 nmol icv immediately after training trial) was “increased latencies” in each case. Also, the IC50 in assay [1] was 4 µM.
`CC[C@H](C)[C@H](NC(=O)[C@H](Cc1ccc(O)cc1)NC(=O)[C@@H](N)C(C)C)C(=O)N[C@@H](Cc1cnc[nH]1)C(=O)N1CCC[C@H]1C(=O)N[C@@H](Cc1ccccc1)C(=O)O` [Ang IV]: the glucose uptake entry in the assay on 3T3-L1 cells was “enhance”.
For the compound `COc1ccc(C2C(C#N)=C(N)Oc3cc(O)ccc32)cc1` (stereo not shown) [Compound 9], in assay [1], the IC50 stood at 80 µM.
Same read-out and setting: with `COc1ccc(C2C(C#N)=C(N)Oc3cc(O)ccc32)cc1OC` (stereo not shown) [Compound 3] the figure was 45 µM.
